According to ChEMBL document CHEMBL3044672, “N9- and N7-(Chloromethyl Phenymethyl)Chloropurine Derivatives from , '-Dichloroxylenes: Synthesis and Anticancer Activity” (2005):

Tests used:
Format in all cases: functional
MCF7 [1] = assay: Cytotoxicity against Homo sapiens (human) MCF7 cells after 48 hr by sulforhodamine B assay; conditions: MCF7, 48 h
U-251 = assay: Cytotoxicity against Homo sapiens (human) U251 cells after 48 hr by sulforhodamine B assay; conditions: U-251, 48 h
SK-MEL-5 = assay: Cytotoxicity against Homo sapiens (human) SK-MEL-5 cells after 48 hr by sulforhodamine B assay; conditions: SK-MEL-5, 48 h
BT-549 = assay: Cytotoxicity against Homo sapiens (human) BT549 cells after 48 hr by sulforhodamine B assay; conditions: BT-549, 48 h
OVCAR-8 = assay: Cytotoxicity against Homo sapiens (human) OVCAR8 cells after 48 hr by sulforhodamine B assay; conditions: OVCAR-8, 48 h
SK-MEL-2 = assay: Cytotoxicity against Homo sapiens (human) SK-MEL-2 cells after 48 hr by sulforhodamine B assay; conditions: SK-MEL-2, 48 h
SF-268 = assay: Cytotoxicity against Homo sapiens (human) SF268 cells after 48 hr by sulforhodamine B assay; conditions: SF-268, 48 h
UO-31 = assay: Cytotoxicity against Homo sapiens (human) UO31 cells after 48 hr by sulforhodamine B assay; conditions: UO-31, 48 h
OVCAR-5 = assay: Cytotoxicity against Homo sapiens (human) OVCAR5 cells after 48 hr by sulforhodamine B assay; conditions: OVCAR-5, 48 h
SK-MEL-28 = assay: Cytotoxicity against Homo sapiens (human) SK-MEL-28 cells after 48 hr by sulforhodamine B assay; conditions: SK-MEL-28, 48 h
HOP-62 = assay: Cytotoxicity against Homo sapiens (human) HOP62 cells after 48 hr by sulforhodamine B assay; conditions: HOP-62, 48 h
IGROV-1 = assay: Cytotoxicity against Homo sapiens (human) IGROV1 cells after 48 hr by sulforhodamine B assay; conditions: IGROV-1, 48 h
SK-OV-3 = assay: Cytotoxicity against Homo sapiens (human) SKOV3 cells after 48 hr by sulforhodamine B assay; conditions: SK-OV-3, 48 h
HT-29 = assay: Cytotoxicity against Homo sapiens (human) HT-29 cells after 48 hr by sulforhodamine B assay; conditions: HT-29, 48 h
CAKI-1 = assay: Cytotoxicity against Homo sapiens (human) Caki1 cells after 48 hr by sulforhodamine B assay; conditions: CAKI-1, 48 h
LOX IMVI = assay: Cytotoxicity against Homo sapiens (human) LOXIMVI cells after 48 hr by sulforhodamine B assay
[2] = Cytotoxicity against Homo sapiens (human) NCI-ADR-RES cells after 48 hr by sulforhodamine B assay
DU-145 = assay: Cytotoxicity against Homo sapiens (human) DU145 cells after 48 hr by sulforhodamine B assay; conditions: DU-145, 48 h
OVCAR-3 = assay: Cytotoxicity against Homo sapiens (human) OVCAR3 cells after 48 hr by sulforhodamine B assay; conditions: OVCAR-3, 48 h
M14 = assay: Cytotoxicity against Homo sapiens (human) M14 cells after 48 hr by sulforhodamine B assay; conditions: M14, 48 h
HCC 2998 = assay: Cytotoxicity against Homo sapiens (human) HCC2998 cells after 48 hr by sulforhodamine B assay; conditions: HCC 2998, 48 h
MOLT-4 = assay: Cytotoxicity against Homo sapiens (human) MOLT4 cells after 48 hr by sulforhodamine B assay; conditions: MOLT-4, 48 h
NCI-H322M = assay: Cytotoxicity against Homo sapiens (human) NCI-H322M cells after 48 hr by sulforhodamine B assay
MCF7 [3] = assay: Cytotoxicity against Homo sapiens (human) MCF7 cells assessed as cell growth at 10^-4 M after 48 hr by Alamar blue assay; conditions: MCF7, 48 h, read-out: Activity
CCRF-CEM = assay: Cytotoxicity against Homo sapiens (human) CCRF-CEM cells after 48 hr by sulforhodamine B assay
T47D = assay: Cytotoxicity against Homo sapiens (human) T47D cells after 48 hr by sulforhodamine B assay
NCI-H460 = assay: Cytotoxicity against Homo sapiens (human) NCI-H460 cells after 48 hr by sulforhodamine B assay; conditions: NCI-H460, 48 h
SF-295 = assay: Cytotoxicity against Homo sapiens (human) SF295 cells after 48 hr by sulforhodamine B assay; conditions: SF-295, 48 h
PC-3 = assay: Cytotoxicity against Homo sapiens (human) PC3 cells after 48 hr by sulforhodamine B assay; conditions: PC-3, 48 h
NCI-H23 = assay: Cytotoxicity against Homo sapiens (human) NCI-H23 cells after 48 hr by sulforhodamine B assay; conditions: NCI-H23, 48 h
EKVX = assay: Cytotoxicity against Homo sapiens (human) EKVX cells after 48 hr by sulforhodamine B assay
RXF 393 = assay: Cytotoxicity against Homo sapiens (human) RXF393 cells after 48 hr by sulforhodamine B assay; conditions: RXF 393, 48 h
[4] = read-out: LC50 (the source's name)

SMILES: ClCc1ccc(Cn2cnc3c(Cl)nc(Cl)nc32)cc1
- GI50 (MCF7 [1]): 1.74 µM
- LC50 (concentration killing 50% of cells) (MCF7 [1]): > 100 µM
- TGI (MCF7 [1]): 3.98 µM
- GI50 (U-251): 2.04 µM
- LC50 (concentration killing 50% of cells) (U-251): 7.41 µM
- TGI (U-251): 3.89 µM
- GI50 (SK-MEL-5): 6.46 µM
- LC50 (SK-MEL-5): 44.7 µM
- TGI (SK-MEL-5): 19.1 µM
- GI50 (BT-549): 15.8 µM
- LC50 (50% lethal concentration) (BT-549): 56.2 µM
- TGI (BT-549): 29.5 µM
- GI50 (OVCAR-8): 19.9 µM
- LC50 (concentration killing 50% of cells) (OVCAR-8): 72.4 µM
- TGI (OVCAR-8): 38 µM
- GI50 (SK-MEL-2): 19.9 µM
- LC50 (concentration killing 50% of cells) (SK-MEL-2): 95.5 µM
- TGI (SK-MEL-2): 43.6 µM
- GI50 (SF-268): 2.51 µM
- TGI (SF-268): 5.37 µM
- CC50 (SF-268; [4]): 42.7 µM
- GI50 (UO-31): 19.5 µM
- LC50 (concentration causing 50% net cell kill) (UO-31): 66.1 µM
- TGI (UO-31): 35.5 µM
- GI50 (OVCAR-5): 18.2 µM
- TGI (OVCAR-5): 34.7 µM
- CC50 (OVCAR-5; [4]): 66.1 µM
- GI50 (SK-MEL-28): 2.69 µM
- LC50 (concentration killing 50% of cells) (SK-MEL-28): 46.8 µM
- TGI (SK-MEL-28): 6.92 µM
- GI50 (HOP-62): 2.19 µM
- TGI (HOP-62): 5.13 µM
- CC50 (HOP-62; [4]): 19.5 µM
- GI50 (IGROV-1): 15.1 µM
- LC50 (IGROV-1): 60.3 µM
- TGI (IGROV-1): 30.2 µM
- GI50 (SK-OV-3): 13.5 µM
- LC50 (SK-OV-3): 66.1 µM
- TGI (SK-OV-3): 29.5 µM
- GI50 (HT-29): 2.88 µM
- TGI (HT-29): > 100 µM
- CC50 (HT-29; [4]): > 100 µM
- GI50 (CAKI-1): 9.12 µM
- TGI (CAKI-1): 21.4 µM
- CC50 (CAKI-1; [4]): 46.8 µM
- GI50 (LOX IMVI): 2.04 µM
- LC50 (LOX IMVI): 8.32 µM
- TGI (LOX IMVI): 4.17 µM
- GI50 [2]: 16.6 µM
- LC50 (concentration killing 50% of cells) [2]: > 100 µM
- TGI [2]: > 100 µM
- GI50 (DU-145): 5.62 µM
- LC50 (DU-145): 42.7 µM
- TGI (DU-145): 17.8 µM
- GI50 (OVCAR-3): 2 µM
- LC50 (OVCAR-3): 9.55 µM
- TGI (OVCAR-3): 4.37 µM
- GI50 (M14): 10.7 µM
- LC50 (M14): 53.7 µM
- TGI (M14): 24 µM
- GI50 (HCC 2998): 10.2 µM
- TGI (HCC 2998): 24 µM
- CC50 (HCC 2998; [4]): 56.2 µM
- GI50 (MOLT-4): 10.5 µM
- TGI (MOLT-4): 27.5 µM
- CC50 (MOLT-4; [4]): 72.4 µM
- GI50 (NCI-H322M): 12.6 µM
- TGI (NCI-H322M): 25.1 µM
- CC50 (NCI-H322M; [4]): 50.1 µM
- growth at 100 µM (MCF7 [3]): 0%
- GI50 (CCRF-CEM): 1.95 µM
- TGI (CCRF-CEM): 4.57 µM
- CC50 (CCRF-CEM; [4]): 14.1 µM
- GI50 (T47D): 1.38 µM
- LC50 (T47D): > 100 µM
- TGI (T47D): 5.5 µM
- GI50 (NCI-H460): 2.4 µM
- TGI (NCI-H460): 4.9 µM
- CC50 (NCI-H460; [4]): 28.8 µM
- GI50 (SF-295): 7.24 µM
- TGI (SF-295): 19.5 µM
- CC50 (SF-295; [4]): 44.7 µM
- GI50 (PC-3): 2.69 µM
- LC50 (concentration causing 50% cell kill) (PC-3): 45.7 µM
- TGI (PC-3): 7.24 µM
- GI50 (NCI-H23): 7.59 µM
- TGI (NCI-H23): 23.4 µM
- CC50 (NCI-H23; [4]): 58.9 µM
- GI50 (EKVX): 17.4 µM
- TGI (EKVX): 31.6 µM
- CC50 (EKVX; [4]): 58.9 µM
- GI50 (RXF 393): 20.9 µM
- TGI (RXF 393): 41.7 µM
- CC50 (RXF 393; [4]): 83.2 µM
